Biological target: T1, HT-29(α2A) (Homo sapiens, UniProt P08913)
T1 construct: HT-29 and chinese hamster ovary (CHO) cells expressing the human α2A (CHO—C10) receptor; endogenous in cells; host or cells: HT-29
T1 sequence (P08913 1-465): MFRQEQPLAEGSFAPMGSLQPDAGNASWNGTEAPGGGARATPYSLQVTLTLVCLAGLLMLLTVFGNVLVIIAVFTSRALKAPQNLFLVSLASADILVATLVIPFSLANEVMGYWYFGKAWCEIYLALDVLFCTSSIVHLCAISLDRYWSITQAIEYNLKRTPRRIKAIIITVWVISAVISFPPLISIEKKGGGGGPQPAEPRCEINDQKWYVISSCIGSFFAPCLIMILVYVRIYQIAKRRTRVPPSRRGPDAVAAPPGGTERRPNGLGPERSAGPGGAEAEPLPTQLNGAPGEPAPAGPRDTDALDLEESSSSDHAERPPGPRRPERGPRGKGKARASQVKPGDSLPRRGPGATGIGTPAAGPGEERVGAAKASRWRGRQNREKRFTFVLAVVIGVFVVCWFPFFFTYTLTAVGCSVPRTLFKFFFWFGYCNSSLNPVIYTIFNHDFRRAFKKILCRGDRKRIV
Assay: Radioligand binding, [3H]rauwolscine, HT-29 cell membranes
Conditions: values marked *: HT-29 cells, 22° C., 30 minutes
Experimental: Cell preparation: HT-29 and chinese hamster ovary (CHO) cells expressing the human α2A (CHO—C10) receptor and CHO cells (CHO—RNG) expressing the rat α2B adrenoceptor were grown to near confluency in Dulbecco's modified Eagle's medium supplemented with 10% fetal bovine serum using standard cell culture methods. Cells were harvested by scraping and placed into cold buffer of the following composition: 50 mM Tris-HCl, 5 mM EDTA, pH 7.4). Cells were then homogenized with a Polytron homogenizer for 2×10 secs at setting # 7, arid centrifuged for 20 minutes at 49,000×g. The pellet fraction was washed (resuspended in Tris-HCl, pH 8 buffer and centrifuged for 15-20 minutes at 49,000×g) 2 times and stored at −100° C. until binding assay.
Binding studies: The radioligands [^3H]rauwolscine (specific activity 80 Ci/mmol) and [^3H]prazosin (specific activity 76 Ci/mmol) were obtained from New England Nuclear, Boston, Mass. Frozen membrane pellet was resuspended in 25 mM glycine/glycine, pH 7.4 and incubated with radioligand under the following conditions: CHO—C10, CHO—RNG, HT-29-[^3H]rauwolscine, 22° C., 30 minutes; RKC-[^3H]rauwolscine, 0° C., 120 minutes; and, HCC-[^3H]prazosin, 22° C., 30 minutes in a final volume of 500 μl. At the end of the incubation period, the samples were filtered through glass fiber filters (Whatman GF/B) in a 96 well cell harvester and rapidly washed four times with 4 ml of ice-cold 50 mM, Tris-HCl buffer. The filters were then oven dried and transferred to scintillation vials containing 5 ml of Beckman's Ready Protein® scintillation cocktail for counting. Specific binding defined by 10 μM phentolamine for competition studies were as follows: 0.3 nM [^3H]rauwolscine—CHO—C10 99%; 0.4 nM[^3H]rauwolscine —CHO—RNG 99%; 0.7;nM [^3H]rauwolscine—HT-29 90%; 1 nm [^3]rauwolscine—RKC 92%, and 0.3 nM [^3H]prazosin—HCC 87%. Protein concentrations were determined with a protein assay kit from Bio Rad. Binding isotherms, equilibrium dissociation and affinity constants were analyzed and determined by the non-linear least squares curve fitting programs AccuFit Competition/Saturation by Beckman.
Binding studies: The radioligands [^3H]rauwolscine (specific activity 80 Ci/mmol), [^3H]prazosin (specific activity 76 Ci/mmol) and [^3H]brimonidine (UK-14,304; specific activity 63 Ci/mmol) were obtained from New England Nuclear, Boston, Mass. Frozen membrane pellet was resuspended either 50 mM tris, 2 mM EGTA, 1 mM MgCl2, pH7.5 (RbKC, RbICB-[^3H]brimonidine); 50 mM tris, 0.5 mM EDTA, 5 mM NaCl, pH 7.7 (RbICB-[^3H]rauwolscine); 25 mM glycine/glycine, pH 7.4 (RtKC, CHO—C10, CH—RNG, HT-29, HCC) or 50 mM tris, 0.1 mM MnCl2, pH7.7 (RtCC). Membrane protein homogenate (75-200 μg) was incubated with radioligand under the following conditions: RbKC and RbICB-[^3H]rauwolscine, 22° C., 45 minutes; RtCC and RbICB-[^3H]brimondine, 22° C., 90 minutes; CHO—C10, CHO—RNG and HT-29-[^3H]rauwolscine, 22° C., 30 minutes; HCC—[^3H]prazosin, 22° C., 30 minutes; and, in a final volume of 250 or 500 μl. At the end of the incubation period, the samples were filtered through glass fiber filters (Whatman GF/B) in a 24 or 96 well cell harvester and rapidly washed four times with 4 mls of iced-cold 50 mM Tris-HCl buffer. The filters were then oven dried and transferred to scintillation vials containing 10 mls of, Beckman's Ready Protein® scintillation cocktail for counting. […] Protein concentrations were determined with a protein assay kit from Bio Rad. […]

| Structure (SMILES) | Ki |
| --- | --- |
| CCCCC1C2CCC(C2)C1NC1=NCCO1 (centres unmarked) | 29 nM |
| CCCCNC1=NCCO1 | 150 nM |

Next, values leading:

| Ki | Structure (SMILES) |
| --- | --- |
| 288 nM | C1CCC(C2C3CCC(C3)C2NC2=NCCN2)CC1 (centres unmarked) |
| 43 nM | CC(C)C1C2CCC(C2)C1NC1=NCCO1 (centres unmarked) |
| 58 nM | CCCCC1C2CCC(C2)C1NC1=NCCS1 (centres unmarked) |

From patent US6706747B2, “Conformationally rigid bicyclic and adamantane derivatives useful as α2-adrenergic blocking agents” (Allergan, Inc., priority 1994, dated 2004)
